Test: Human HepG2 cell viability assay in 384 well format
Format: toxicity, cell-based
Parameters: dose 125 nL, time 70.5 hour; concentration not given beside the values
Settings: HepG2 cells, read-out: Inhibition

SMILES	cytotoxicity at 70.5 h [%]
CCC1(C)Cc2ccccc2-c2nc(NCCO)nc(O)c21 (stereo not given)	-26.4
O=c1[nH]c(NCCCO)nc2c1C1(CCCC1)Cc1ccccc1-2	-23.5
O=c1[nH]c(NCCO)nc2c1C1(CCCC1)Cc1ccccc1-2	18.4
CCN1C(=O)CC[C@@H]2[C@H]1CCN2C(=O)Cc1cccc(OC)c1	0.943
COc1cccc(CN2CCC3(CCN(c4ncc(C)cn4)C3)C2=O)c1 (stereo not given)	-0.0299
Cc1ccc(C(=O)N2CC[C@@H]3[C@H]2CCC(=O)N3CC2CC2)o1	-0.589
COC[C@]12COC[C@H]1CN(S(=O)(=O)c1cccnc1)C2	-13
CC(C)N1CCN(C)C2(CCN(C(=O)c3ccnnc3)CC2)C1=O	-4.95
CS(=O)(=O)N1CCCC12CCCN(c1nccs1)C2 (stereo not given)	-3.55
CC(C)C(=O)N1CC[C@@H]2CN(Cc3ccncc3)S(=O)(=O)[C@@H]2CC1	-3.99
O=C(c1cc[nH]n1)N1CC[C@@H]2CN(Cc3cccnc3)S(=O)(=O)[C@@H]2CC1	-1.58
CCc1cnc(N2CC[C@@H]3CN(C(=O)c4ccco4)CCO[C@@H]3C2)nc1	-10.8
CN(C)CCNC(=O)c1noc2c1CN(C(=O)N(C)C)CC2	-6.62
O=C(c1ccnnc1)N1CCC2(CCN(c3ccsc3)C2=O)C1 (stereo not given)	-0.84
CO[C@@H]1CC[C@H]2[C@H]1OCCN2C(=O)c1ccco1	-1.75
Cn1nc(C#N)c2c1CN(C(=O)c1ccnnc1)CCC2	0.526
Cc1nc(CN2CCO[C@H]3CN(C(=O)Cc4cccs4)C[C@H]32)cs1	-3.66
O=C1NCC[C@]12CN(Cc1ccsc1)C[C@H]2c1ccccc1	-4.93
CCO[C@@H]1CC[C@H]2[C@H]1OCCN2C(=O)c1ccc(C)o1	-4.6
Cc1ccc(CC(=O)N2CCn3cc(Cn4cncn4)nc3C2)cc1	-7.66
CO[C@H]1CC[C@H]2[C@H]1OCCN2C(=O)c1ccc(C)nc1	-2.48
Cc1ccc(C(=O)N2C[C@@H]3COC[C@]3(COCc3cccnc3)C2)cn1	-6.21

SMILES	cytotoxicity at 70.5 h [%]
Cc1nc(C(=O)N2C[C@@H]3COC[C@]3(COCc3cccnc3)C2)cs1	-6.56
CCn1c(SCC(=O)N2CCOCC2)nc2cc(C)[nH]c2c1=O	0.779
Cc1cc2nc(SCC(=O)N3CCCCC3)n(C)c(=O)c2[nH]1	19.2
Cc1cc2nc(SCC(=O)N3CCOCC3)n(C(C)C)c(=O)c2[nH]1	-5.42
COc1ccc(N2CCN(CC(O)c3cc(C)ccc3C)CC2)cc1 (stereo not given)	-14.7
OCCCNc1nc(O)c2c(n1)-c1ccccc1CC21CCCCC1	-9.73
COc1ccccc1CCNC(=O)CC1(Cn2cnnn2)CCCCC1	-20.4
CC(C)c1ccc(NC(=O)Cn2cc(I)cn2)cc1	-24.1
CC(C)CNC(=O)CC1(Cn2cnnn2)CCCCC1	-12.5
COc1cccc2c1ccn2CC(=O)N1CCCC(C(=O)O)C1 (stereo not given)	21.4
COc1ccc(C(=O)COc2coc(CN3CCCCC3)cc2=O)cc1	-5.06
COc1cccc(C(=O)Oc2cc(=O)n3cccc(C)c3n2)c1	-24.8
CCCOc1ccc(C(=O)Oc2cc(=O)n3cccc(C)c3n2)cc1	-0.525
Cc1ccc(C(=O)Oc2cc(=O)n3cccc(C)c3n2)cc1	15.3
Cc1cccn2c(=O)cc(OC(=O)c3ccc(OC(C)C)cc3)nc12	-14.3
COCCNC(=O)Cn1c(-c2ccc(Cl)cc2)nc(C)c(CCO)c1=O	3.28
CC/N=c1\nc(NCC)nc2n1C(O)(Nc1ccc(C)cc1C)CS2 (stereo not given)	4.88
CCOc1cccc2c1OCC(=O)N(c1ccc3c(c1)OCO3)C2	14.7
CCOc1cccc2c1OCC(=O)N(c1ccc3c(c1)OCCO3)C2	-6.5
O=c1[nH]nc2c(S(=O)(=O)N3CCOCC3)cccn12	-9.51
Cn1ccc2c(cnc3nc(-c4ccncc4)nn32)c1=O	-7.69
Cc1nc2ncc3c(=O)n(C)ccc3n2n1	-8.63

SMILES	cytotoxicity at 70.5 h [%]
CCc1nnc2sc(-c3cc(C(C)C)n[nH]3)nn12	-1.02
CC1CCC2(CC1)Nc1ccccc1CO2 (stereo not given)	15.1
COC(=O)C1CCN(C(=O)c2cc(Br)ccc2-n2cnnn2)CC1	-1.5
CN1CCCN(Cn2nc(-c3ccccc3F)ccc2=O)CC1	-5.91
Cc1ccccc1CS(=O)(=O)c1nnc(C(C)NC(=O)OC(C)(C)C)o1 (stereo not given)	26.9
CC(NC(=O)OC(C)(C)C)c1nnc(S(=O)(=O)Cc2ccccc2Cl)o1 (stereo not given)	-4.85
CC(=O)c1ccc(NC(=O)N[C@H](C(=O)O)C(C)C)cc1	-6.92
CCOC(=O)C1CCN(C(=O)c2cc(Br)ccc2-n2cnnn2)CC1	-6.49
O=C(Cc1ccc2c(c1)OCC2)Nc1nc[nH]n1	-8.03
O=C(Cc1ccc2c(c1)OCC2)Nc1nn[nH]n1	-8.8
CC(NC(=O)OC(C)(C)C)c1nnc(S(=O)(=O)Cc2ccc(Cl)cc2)o1 (stereo not given)	4.02
CC(CC(=O)O)CC(=O)Nc1sc2c(c1C(N)=O)CCc1ccccc1-2 (stereo not given)	19.3
NC(=O)c1c(NC(=O)C2CCCO2)sc2c1CCc1ccccc1-2 (stereo not given)	-3.81
Cc1cccc(CSc2ncc(Br)c(C(=O)O)n2)c1	-8.53
Cc1ccc(CSc2ncc(Br)c(C(=O)O)n2)cc1	0.214
CCOc1cc(CNCCCn2ccnc2)cc(Cl)c1OC	3.61
CCOc1c(Cl)cc(Cl)cc1CNCCCn1ccnc1	-10.4
Cc1nc(Nc2ccc(Cl)cn2)sc1C(=O)NC(C)C	7.41
Cc1c(C(=O)O)nnn1Cc1cccc(C(F)(F)F)c1	-12.7
O=C(COCc1nc(-c2ccncc2)no1)N1CCOCC1	-0.64
CCN1CCN(C(=O)COCc2nc(-c3ccncc3)no2)CC1	-1.19
Cc1cc(O)n(-c2ccc3nnc(C)n3n2)n1	-19.5

SMILES	cytotoxicity at 70.5 h [%]
O=C(O)c1cnc(N2CCCC2)nc1COc1ccccc1	-2.71
Cc1nc(N2CCCC2)ncc1-c1cc(O)n2ncnc2n1	-2.97
COCCNc1cc(C(=O)N2CCOCC2)nc(C)n1	0.483
CCn1nc(C)c2nnn(CC(=O)Nc3cccc(C)c3)c(=O)c21	-10.1
Cc1nc(NCCc2ccccc2)cc(C(=O)N2CCCCC2)n1	-0.559
COc1ccc(OCCc2nnc(NC(C)=O)s2)cc1	-4.39
Cc1nc(NCc2ccc(F)cc2)cc(C(=O)N2CCOCC2)n1	-3.46
Cc1c(Cc2ccccc2)c(O)nc2nc(N3CCOCC3)nn12	-8.68
COCCCNc1c(C#N)c2c(c3nncn13)CN(C)CC2	-28.4
CCOc1ccc(Br)cc1C1CCCCN1 (stereo not given)	-12.6
CCOC(=O)CSc1nnc(C(N)CC(C)C)o1 (stereo not given)	-7.86
CN(C)C(=O)C1CN(Cc2ccsc2)Cc2ccnn2C1 (stereo not given)	12.7
Cn1cccc1C(=O)N1CC[C@H]2[C@H]1CCN2CC1CC1	-0.69
c1cncc(COC2COC3(CCN(c4cnccn4)CC3)C2)c1 (stereo not given)	15.1
CNC(=O)COC1COC2(CCN(c3ncccn3)CC2)C1 (stereo not given)	-1.44
CC(C)NC(=O)N1CCc2onc(C(=O)NCCN(C)C)c2C1	-2.85
CC(C)C(=O)N1CCc2onc(C(=O)NCCN(C)C)c2C1	-5.11
O=C(c1cc[nH]n1)N1CC[C@@H]2CN(Cc3ccncc3)S(=O)(=O)[C@@H]2CC1	-5.13
COc1cc(N2C[C@@H]3COC[C@]3(C(=O)NC3CC(F)(F)C3)C2)ncn1	-4.63
CNC(=O)c1cc2c(nc1N(C)C)CCN(S(=O)(=O)N(C)C)CC2	4.98
COc1ccc2c(c1)C1(CCN(Cc3cnn(C)c3)CC1)N(C)CC2	-0.704
COCC1CC2(CCN(C(=O)c3ccc(C)nc3)CC2)CO1 (stereo not given)	-5.4

SMILES	cytotoxicity at 70.5 h [%]
Cc1noc([C@@H]2C[C@@H]3CCN(CC4CCOCC4)C[C@H]3O2)n1	-4.62
Cc1ccc(N2CC3(COCCN(Cc4cnn(C)c4)C3)OCC2=O)s1 (stereo not given)	0.295
CC(C)NC(=O)C1CN(Cc2ccsc2)Cc2ccnn2C1 (stereo not given)	1.63
Cc1ccsc1CN1CCC2(CC1)CC(OCc1cccnc1)CO2 (stereo not given)	-0.0736
Fc1cnc(N2CCC3(CC2)CC(OCc2cccnc2)CO3)nc1 (stereo not given)	-0.216
Cc1cnc(N2CCC3(CC2)CC3CN(C)Cc2cccnc2)nc1 (stereo not given)	2.52
c1csc(CN2CCC3(CC2)CCN(CC2CCOCC2)C3)n1	0.161
Cc1nc(CN2C[C@@H]3CCCO[C@@H]3[C@H](N(C)C(C)C)C2)cs1	-1.04
COCCN1C(=O)CC[C@]12CC[C@@H](NCc1cccnc1OC)CC2	-2.58
c1csc(CN2CCC3(COCCN(CC4CC4)C3)C2)n1 (stereo not given)	-3.37
O=C(c1ccncc1)N1CC[C@@H]2[C@@H](CC1)OCCN2c1cccnc1	-7.36
CO[C@H]1CCN(c2ncc(F)cn2)[C@@H]2CN(Cc3ccco3)C[C@H]12	-6.95
CN1C[C@@H]2CN(Cc3ccsc3)CCC[C@]2(C(=O)O)C1	-2.55
CCOC(=O)[C@]12CCCN(Cc3ccsc3)C[C@H]1CN(CCOC)C2	-5.12
CNC(=O)c1cc2c(nc1N(C)C)CCN(C)CC2	-2.14
O=S(=O)(NCC1OCCc2cn(Cc3ccccn3)nc21)C1CC1 (stereo not given)	-0.93
CCOC(=O)[C@]12CCCN(Cc3nccs3)C[C@H]1CN(CC(C)C)C2	-3.1
CN(Cc1cccnc1)CC1CC12CCN(c1nncs1)CC2 (stereo not given)	-12.3
c1ccc(Cn2cc3c(n2)C(CNCC2CCOCC2)OCC3)nc1 (stereo not given)	-1.54
COc1ncccc1CN1CC[C@H]2[C@H]1CCN2CCN(C)C	-1.63
CCOc1ccc(Br)cc1C1CCCN1 (stereo not given)	18.6
Cc1ccc(C(=O)CN(C2=NCCCCC2)c2ccccc2)cc1	-23.6

From ChEMBL document CHEMBL3507680, “University of Dundee, Gates Library screen for HepG2 cell viability”
